Data taken from patent US7396856B2, “Benzopyran analogs and their use for the treatment of glaucoma” (Alcon, Inc., priority 2002, dated 2008).
Where a name gives a salt, the structure may show the parent alone. Read-outs that look alike come from different tables or passages of the source.

Columns and labels:
[1] = target: T1, 5-HT2 receptor (Rattus norvegicus, UniProt P14842); experiment: 5-HT2 functional assay: [Ca2+]i mobilization (FLIPR) in A7r5 cells; type: cell-based; conditions: for Emax / Efficacy (Emax, %): percentage of maximum 5-HT-induced response; for Emax: read-out: Efficacy (Emax, %); for EC50: A7r5 rat vascular smooth muscle cells, FLIPR
T1 construct: endogenous in cells; host or cells: A7r5 rat vascular smooth muscle cells
Experimental: 5-HT2 Functional Assay: [Ca^2+]i Mobilization
The receptor-mediated mobilization on intracellular calcium ([Ca^2+]i) was studied using the Fluorescence Imaging Plate Reader (FLIPR) instrument. Rat vascular smooth muscle cells, A7r5, were grown in a normal media of […] and 10 μg/mL gentamycin. Confluent cell monolayers were trypsinized, pelleted, and re-suspended in normal media. Cells were seeded in a 50 μL volume at a density of 20,000 cells/well in a black wall, 96-well tissue culture plate and grown for 2 days.
On the day of the experiment, one vial of FLIPR Calcium Assay Kit dye was re-suspended in 50 mL of a FLIPR buffer consisting of Hank's Balanced Salt Solution (HBSS), 20 mM HEPES, and 2.5 mM probenecid, pH 7.4. Cells were loaded with the calcium-sensitive dye by addition of an equal volume ([…]) to each well of the 96-well plate and incubated with dye for 1 h at 23° C.
Compounds were diluted 1:50 in […]. For “hit” screening, compounds were further diluted 1:10 in FLIPR buffer and tested at a final concentration of 10 μM.
The compound plate and cell plate were placed in the FLIPR instrument. At the beginning of an experimental run, a signal test was performed to check the basal fluorescence signal from the dye-loaded cells and the uniformity of the signal across the plate. The basal fluorescence was adjusted between 8000-12000 counts by modifying the exposure time, the camera F-stop, or the laser power. Instrument settings for a typical assay were the following: laser power 0.3-0.6 W, camera F-stop F/2, and exposure time 0.4 sec. An aliquot (25 μL) of the test compound was added to the existing 100 μL dye-loaded cells at a dispensing speed of 50 μL/sec. Fluorescence data were collected in real-time at 1.0 sec intervals for the first 60 secs and at 6.0 sec intervals for an additional 120 secs.

[2] = tested on: intraocular pressure (IOP); experiment: Acute IOP response in lasered (hypertensive) eyes of conscious cynomolgus monkeys; type: in vivo; conditions: lasered monkey eye
Experimental: Acute IOP Response in Lasered (Hypertensive) Eyes of Conscious Cynomolgus Monkeys
Intraocular pressure (IOP) can be determined with an Alcon Pneumatonometer after light corneal anesthesia with 0.1% proparacaine. Eyes are washed with saline after each measurement. After a baseline IOP measurement, test compound is instilled in one 30 μL aliquot to the right eyes only of nine cynomolgus monkeys. Vehicle is instilled in the right eyes of six additional animals. Subsequent IOP measurements are taken at 1, 3, and 6 hours.

[3] = target: brain 5-HT2 receptors (Rattus norvegicus, UniProt P14842); experiment: 5-HT2 receptor binding assay ([125I]DOI competition); conditions: [125I]DOI displacement, rat or human cerebral cortex homogenates
Experimental: 5-HT2 Receptor Binding Assay
The assay mixture is incubated for 1 hour at 23° C. in polypropylene tubes and the assays terminated by rapid vacuum filtration over Whatman GF/B glass fiber filters previously soaked in 0.3% polyethyleneimine using ice-cold buffer. Test compounds (at different concentrations) are substituted for methiothepin. Filter-bound radioactivity is determined by scintillation spectrometry on a beta counter. The data are analyzed using a non-linear, iterative curve-fitting computer program [Trends Pharmacol. Sci., 16, 413 (1995)] to determine the compound affinity parameter. The concentration of the compound needed to inhibit the [^125I]DOI binding by 50% of the maximum is termed the IC50 or Ki value.

[4] = EC50, nM (5-HT2 functional, [Ca2+]i mobilization)
[5] = 1 hour after single topical ocular instillation of 300 μg
[6] = 3 hours after single topical ocular instillation of 300 μg
[7] = 6 hours after single topical ocular instillation of 300 μg

T1 sequence (P14842 whole entry): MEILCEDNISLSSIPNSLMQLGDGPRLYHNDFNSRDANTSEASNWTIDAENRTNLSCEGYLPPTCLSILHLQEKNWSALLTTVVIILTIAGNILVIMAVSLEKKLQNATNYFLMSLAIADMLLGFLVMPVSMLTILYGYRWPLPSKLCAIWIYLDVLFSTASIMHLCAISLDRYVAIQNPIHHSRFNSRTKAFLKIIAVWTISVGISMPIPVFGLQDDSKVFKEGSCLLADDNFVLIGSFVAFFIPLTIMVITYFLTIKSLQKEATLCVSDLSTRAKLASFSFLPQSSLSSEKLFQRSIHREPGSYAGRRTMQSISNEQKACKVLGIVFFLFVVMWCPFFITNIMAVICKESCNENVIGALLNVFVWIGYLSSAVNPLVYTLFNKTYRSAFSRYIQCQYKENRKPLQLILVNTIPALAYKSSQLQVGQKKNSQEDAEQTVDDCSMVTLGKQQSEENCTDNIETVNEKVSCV
Chain of brain 5-HT2 receptors (P14842 whole entry): as above

COc1cc(CC(C)N)c(OC)c2c1CCOC2 (racemic) [Compound A, 2-(5,8-Dimethoxy-isochroman-7-yl)-1-methyl-ethylamine hydrochloride]
Emax ([1]; A7r5 cells): 55% | EC50 [1, 4]: 267 nM

COc1cc(CC(C)N)c(OC)c2c1CCOC2.Cl (single isomer, unassigned; (+)) [Compound C, (+) 2-(5,8-Dimethoxy-isochroman-7-yl)-1-methyl-ethylamine hydrochloride]
Efficacy (Emax, %) ([1]; A7r5 cells, hydrochloride): 69% | EC50 [1, 4]: 43 nM

COc1cc(CC(C)N)c(OC)c2c1CCOC2.Cl (single isomer, unassigned; (-)) [Compound B, (−) 2-(5,8-Dimethoxy-isochroman-7-yl)-1-methyl-ethylamine hydrochloride]
Emax ([1]; A7R5, A7r5 cells): 55% | EC50 [1, 4]: 39 nM | IOP lowering (%) [2, 5]: 15.8% | IOP lowering (mmHg) [2, 5]: 6.8 mmHg | IOP lowering (%) [2, 6]: 28.5% | IOP lowering (mmHg) [2, 6]: 12.5 mmHg | IOP lowering (%) [2, 7]: 21.3% | IOP lowering (mmHg) [2, 7]: 9.6 mmHg

COc1cc(CC(C)N)c(OC)cc1I (stereo not drawn) [DOI, reference compound]
Efficacy (Emax, %) ([1]; A7r5 cells): 31% | EC50 ([1]; read-out: EC50, nM (5-HT2 functional, [Ca2+]i mobilization)): 30.2 nM | IC50 [3]: 0.33 nM
